From patent US11638706B2, “Methods for treating Huntington's disease” (PTC Therapeutics, Inc., priority 2015, dated 2023)

Tested on: Huntingtin protein (HTT)
Assay: Endogenous Huntingtin Protein Assay (MSD electrochemiluminescence ELISA; MW1 or MAB2166 capture, #5656S detection)
Type: cell-based, human
Protocol: The Endogenous Huntingtin Protein assay used in Example 2 was developed using the Best Pair antibodies identified in Table 2, providing highly sensitive, high-throughput detection assays for polyglutamine-expanded (mHTT) and total human HTT in multiple cell systems. The platform used for the assay is the ELISA-based Meso Scale Discovery (MSD) electrochemiluminescence assay platform.
Meso Scale Discovery (MSD) 96-well or 384-well plates were coated overnight at 4° C. with MW1 (expanded polyglutamine) or MAB2166 monoclonal antibody (for capture) at a concentration of 1 μg/mL in PBS (30 μL per well). Plates were then washed three times with 300 μL wash buffer (0.05% Tween-20 in PBS) and blocked (100 μL blocking buffer; 5% BSA in PBS) for 4-5 hours at room temperature with rotational shaking and then washed three times with wash buffer.
Samples (25 μL) were transferred to the antibody-coated MSD plate and incubated overnight at 4° C. After removal of the lysates, the plate was washed three times with wash buffer, and 25 μL of #5656S (Cell signaling; rabbit monoclonal) secondary antibody (diluted to 0.25 μg/mL in 0.05% Tween-20 in blocking buffer) was added to each well and incubated with shaking for 1 Hour at room temperature. Following incubation with the secondary antibody, the wells were rinsed with wash buffer after which 25 μL of goat anti-rabbit SULFO TAG secondary detection antibody (required aspect of the MSD system) (diluted to 0.25 μg/mL in 0.05% Tween-20 in blocking buffer) was added to each well and incubated with shaking for 1 hour at room temperature. After rinsing three times with wash buffer, 150 μL of read buffer T with surfactant (MSD) were added to each empty well, and the plate was imaged on a SI 6000 imager (MSD) according to manufacturers' instructions provided for 96- or 384-well plates.

Molecule	IC50
CN(c1ccc(-c2ccc(C#N)cc2O)nn1)C1CC(C)(C)NC(C)(C)C1 [Cpd 39, 3-hydroxy-4-(6-(methyl(2,2,6,6-tetramethylpiperidin-4-yl)amino)pyridazin-3-yl)benzonitrile]	3000 to 9000 nM
CN(c1nnc(-c2ccc(-c3cnn(C)c3)cc2O)s1)C1CC(C)(C)NC(C)(C)C1 [Cpd 315]	≤ 100 nM
Cc1nn2ccccc2c1-c1ccc(N(C)C2CC(C)(C)NC(C)(C)C2)nn1 [Cpd 445, N-methyl-6-(2-methylpyrazolo[1,5-a]pyridin-3-yl)-N-(2,2,6,6-tetramethylpiperidin-4-yl)pyridazin-3-amine]	3000 to 9000 nM
5-(3,5-dimethyl-1H-pyrazol-4-yl)-2-{6-[(2,2,6,6-tetramethylpiperidin-4-yl)oxy]pyridazin-3-yl}phenol [Cpd 451]	3000 to 9000 nM
COc1cc(-n2cc([N+](=O)[O-])cn2)ccc1-c1ccc(N(C)C2CC(C)(C)NC(C)(C)C2)nn1 [Cpd 420, 6-[2-methoxy-4-(4-nitro-1H-pyrazol-1-yl)phenyl]-N-methyl-N-(2,2,6,6-tetramethylpiperidin-4-yl)pyridazin-3-amine]	≤ 100 nM
CN(c1ccc(-c2cc3cncnc3cc2O)nn1)C1CC(C)(C)NC(C)(C)C1 [Cpd 258, 6-(6-(methyl(2,2,6,6-tetramethylpiperidin-4-yl)amino)pyridazin-3-yl)quinazolin-7-ol]	100 to 500 nM
CC1(C)CC(Oc2ccc(-c3cc(-c4cn[nH]c4)cs3)nn2)CC(C)(C)N1 [Cpd 450, 3-[4-(1H-pyrazol-4-yl)thiophen-2-yl]-6-[(2,2,6,6-tetramethylpiperidin-4-yl)oxy]pyridazine]	3000 to 9000 nM
Oc1cc(-c2cn[nH]c2)ccc1-c1ccc(NC2C[C@H]3CC[C@@H](C2)N3)nn1 (stereo partly drawn) [Cpd 433, 2-{6-[(1R,5S)-8-azabicyclo[3.2.1]oct-3-ylamino]pyridazin-3-yl}-5-(1H-pyrazol-4-yl)phenol]	100 to 500 nM
Cc1cnc(-c2ccc(-c3ccc(N(C)C4CC(C)(C)NC(C)(C)C4)nn3)c(O)c2)o1 [Cpd 44, 5-(5-methyl-oxazol-2-yl)-2-(6-(methyl-(2,2,6,6-tetramethylpiperidin-4-yl)-amino)-pyridazin-3-yl)phenol]	≤ 100 nM
CN(c1ccc(-c2cc3ccccc3cc2O)nn1)C1CC(C)(C)NC(C)(C)C1 [Cpd 26, 3-(6-(methyl(2,2,6,6-tetramethylpiperidin-4-yl)amino)pyridazin-3-yl)naphthalen-2-ol]	100 to 500 nM
Cn1cc(-c2csc(-c3ccc(OC4CC(C)(C)NC(C)(C)C4)nn3)c2)cn1 [Cpd 438, 3-[4-(1-methyl-1H-pyrazol-4-yl)thiophen-2-yl]-6-[(2,2,6,6-tetramethylpiperidin-4-yl)oxy]pyridazine]	1000 to 3000 nM
CN(c1ccc(-c2ccc(-c3cn[nH]c3)cc2C(F)F)nn1)C1CC(C)(C)NC(C)(C)C1 [Cpd 465, 6-[2-(difluoromethyl)-4-(1H-pyrazol-4-yl)phenyl]-N-methyl-N-(2,2,6,6-tetramethylpiperidin-4-yl)pyridazin-3-amine]	3000 to 9000 nM
CN(c1ccc(-c2ccc(O)cc2F)nn1)C1CC(C)(C)NC(C)(C)C1 [Cpd 440, 3-fluoro-4-{6-[methyl(2,2,6,6-tetramethylpiperidin-4-yl)amino]pyridazin-3-yl}phenol]	3000 to 9000 nM
COc1cc(-c2cn[nH]c2)ccc1-c1nnc(N(C)C2CC(C)(C)NC(C)(C)C2)s1 [Cpd 307]	100 to 500 nM
5-(5-methyl-1H-pyrazol-4-yl)-2-{6-[(2,2,6,6-tetramethylpiperidin-4-yl)oxy]pyridazin-3-yl}phenol [Cpd 418]	≤ 100 nM
Oc1cc(-c2cn[nH]c2)ccc1-c1ccc(OC2C[C@H]3CC[C@@H](C2)N3)nn1 (stereo partly drawn) [Cpd 415, 2-[6-((1R,5S)-8-azabicyclo[3.2.1]oct-3-yloxy)pyridazin-3-yl]-5-(1H-pyrazol-4-yl)phenol]	≤ 100 nM
Cn1cc2cc(-c3ccc(OC4CC(C)(C)NC(C)(C)C4)nn3)ccc2n1 [Cpd 443, 2-methyl-5-{6-[(2,2,6,6-tetramethylpiperidin-4-yl)oxy]pyridazin-3-yl}-2H-indazole]	3000 to 9000 nM
COc1cc(Cl)ccc1-c1ccc(OC2CC(C)(C)NC(C)(C)C2)nn1 [Cpd 444, 3-(4-chloro-2-methoxyphenyl)-6-[(2,2,6,6-tetramethylpiperidin-4-yl)oxy]pyridazine]	3000 to 9000 nM
CC1CC(Oc2ccc(-c3ccc(-n4cccn4)cc3O)nn2)CC(C)N1 (centres unmarked) [Cpd 441, 2-{6-[(2,6-dimethylpiperidin-4-yl)oxy]pyridazin-3-yl}-5-(1H-pyrazol-1-yl)phenol]	3000 to 9000 nM

Molecule	IC50
CC1(C)CC(Nc2ccc(-c3ccc(-c4cn[nH]c4)cc3O)nn2)CC(C)(C)N1 [Cpd 413, 5-(1H-pyrazol-4-yl)-2-{6-[(2,2,6,6-tetramethylpiperidin-4-yl)amino]pyridazin-3-yl}phenol]	≤ 100 nM
CN(c1ccc(-c2ccc(-c3ccnc(O)c3)cc2O)nn1)C1CC(C)(C)NC(C)(C)C1 [Cpd 170, 4-(3-hydroxy-4-(6-(methyl(2,2,6,6-tetramethylpiperidin-4-yl)amino)pyridazin-3-yl)phenyl)pyridin-2-ol]	≤ 100 nM
Cn1cc(-c2ccc(-c3ccc(OC4CC(C)(C)NC(C)(C)C4)nn3)c(O)c2)cn1 [Cpd 414, 5-(1-methyl-1H-pyrazol-4-yl)-2-{6-[(2,2,6,6-tetramethylpiperidin-4-yl)oxy]pyridazin-3-yl}phenol]	≤ 100 nM
Oc1cc(-c2cn[nH]c2)ccc1-c1ccc(C2=CCNCC2)nn1 [Cpd 424, 5-(1H-pyrazol-4-yl)-2-[6-(1,2,3,6-tetrahydropyridin-4-yl)pyridazin-3-yl]phenol]	100 to 500 nM
CCN1CC=C(c2ccc(-c3ccc(-c4cn[nH]c4)cc3O)nn2)CC1 [Cpd 425, 2-[6-(1-ethyl-1,2,3,6-tetrahydropyridin-4-yl)pyridazin-3-yl]-5-(1H-pyrazol-4-yl)phenol]	100 to 500 nM
CN(c1nnc(-c2ccc(-c3ccn(C)c(=O)c3)cc2O)s1)C1CC(C)(C)NC(C)(C)C1 [Cpd 318]	≤ 100 nM
Oc1cc(-c2cn[nH]c2)ccc1-c1ccc(NC2C[C@H]3CC[C@@H](C2)N3)nn1 (stereo partly drawn) [Cpd 412, 2-[6-((1R,5S)-8-azabicyclo[3.2.1]oct-3-ylamino)pyridazin-3-yl]-5-(1H-pyrazol-4-yl)phenol]	≤ 100 nM
CC1(C)CC(Oc2ccc(-c3ccc4nccn4c3)nn2)CC(C)(C)N1 [Cpd 446, 6-{6-[(2,2,6,6-tetramethylpiperidin-4-yl)oxy]pyridazin-3-yl}imidazo[1,2-a]pyridine]	3000 to 9000 nM
CC1(C)CC(Oc2ccc(-c3cc4ccccc4cc3O)nn2)CC(C)(C)N1 [Cpd 31, 3-(6-((2,2,6,6-tetramethylpiperidin-4-yl)oxy)pyridazin-3-yl)naphthalen-2-ol]	100 to 500 nM
CC1(C)CC(Oc2ccc(-c3ccc(-c4cn[nH]c4)s3)nn2)CC(C)(C)N1 [Cpd 448, 3-[5-(1H-pyrazol-4-yl)thiophen-2-yl]-6-[(2,2,6,6-tetramethylpiperidin-4-yl)oxy]pyridazine]	3000 to 9000 nM
Oc1cc(-c2cn[nH]c2)ccc1-c1ccc(OC2CCNCC2)nn1 [Cpd 432, 2-[6-(piperidin-4-yloxy)pyridazin-3-yl]-5-(1H-pyrazol-4-yl)phenol]	100 to 500 nM
CN(c1ccc(-c2ccc3nn(C)cc3c2)nn1)C1CC(C)(C)NC(C)(C)C1 [Cpd 442, N-methyl-6-(2-methyl-2H-indazol-5-yl)-N-(2,2,6,6-tetramethylpiperidin-4-yl)pyridazin-3-amine]	3000 to 9000 nM
CC1CC(Oc2ccc(-c3ccc(-c4cn[nH]c4)cc3O)nn2)CC(C)N1 (centres unmarked) [Cpd 436, 2-{6-[(2,6-dimethylpiperidin-4-yl)oxy]pyridazin-3-yl}-5-(1H-pyrazol-4-yl)phenol]	500 to 1000 nM
CN(c1ccc(-c2ccc(-c3cn[nH]c3)cc2O)nn1)C1C[C@H]2CC[C@@H](C1)N2 (stereo partly drawn) [Cpd 411, 2-{6-[(1R,5S)-8-azabicyclo[3.2.1]oct-3-yl(methyl)amino]pyridazin-3-yl}-5-(1H-pyrazol-4-yl)phenol]	≤ 100 nM
3-[2-methoxy-4-(1H-pyrazol-1-yl)phenyl]-6-[(2,2,6,6-tetramethylpiperidin-4-yl)oxy]pyridazine [Cpd 447]	3000 to 9000 nM
CN(c1nnc(-c2ccc(-c3cn[nH]c3)cc2O)s1)C1CC(C)(C)NC(C)(C)C1 [Cpd 393]	≤ 100 nM
CN(c1nnc(Oc2ccc(-c3cn[nH]c3)cc2)s1)C1CC(C)(C)NC(C)(C)C1 [Cpd 463, N,2,2,6,6-pentamethyl-N-{5-[4-(1H-pyrazol-4-yl)phenoxy]-1,3,4-thiadiazol-2-yl}piperidin-4-amine]	3000 to 9000 nM
Oc1cc(-c2cn[nH]c2)ccc1-c1ccc(N2C[C@H]3CNC[C@H]3C2)nn1 [Cpd 200, 2-(6-((3aR,6aS)-hexahydropyrrolo[3,4-c]pyrrol-2(1H)-yl)pyridazin-3-yl)-5-(1H-pyrazol-4-yl)phenol]	≤ 100 nM
CN(c1ccc(-c2ccc(-n3cc([N+](=O)[O-])cn3)cc2O)nn1)C1CC(C)(C)NC(C)(C)C1 [Cpd 419, 2-{6-[methyl(2,2,6,6-tetramethylpiperidin-4-yl)amino]pyridazin-3-yl}-5-(4-nitro-1H-pyrazol-1-yl)phenol]	≤ 100 nM
